{
  "source": "patent US20260306485A1",
  "about": "“COMPOSITIONS AND METHODS FOR THE TREATMENT OF CONGENITAL ADRENAL HYPERPLASIA” (CRINETICS PHARMACEUTICALS, INC., priority 2023, published 2026)",
  "format_in_all_cases": "in vivo, human",
  "key": {"[1]": {"system": "serum testosterone (female/women)", "assay": "Phase 2 CAH study, Cohort 1 initial analysis: morning serum testosterone, female participants", "details": "80 mg QD oral; for testosterone reduction (mean±SD), female participants: morning, baseline 114 ng/dL", "source_text": "(§1) Up to approximately 30 participants will be enrolled in the study. Each cohort will enroll at least 6 participants, with a possible expansion of up to an additional 6 participants in cohorts 1 and 2, to a maximum of 12 evaluable participants in those cohorts. The treatment duration will be up to Day 84 (12 Weeks) per participant. The total study duration will be up to 140 days (up to 4 weeks of screening, 12 weeks of treatment, and 4 weeks of follow-up) per participant. The visit frequency will be at Screening (2 visits), on Day 1 (Baseline), and at Weeks 2 (Day 14), 6 (Day 42), and 12 (Day 84). A Safety Follow-up Visit will occur 2 weeks following the last dose of CRN04894 (Week 14; Day 98), and a telephone call to collect any adverse events (AEs) will occur at 4 weeks after the last dose of CRN04894 (Week 16, Day 112). The study design is discussed in detail below.\n(§2) Participants in all cohorts will continue their preexisting glucocorticoid replacement dosing regimens/doses throughout the study. In addition, starting the night of Day 1 and ending the night before the Week 12/end of treatment (EOT) visit, each cohort will administer CRN04894 between 22:00-24:00 (at approximately the same time each night) once daily (QD) before sleep.\n(§3) Participants in Cohort 1 will receive 80 mg of CRN04894 QD. After at least 3 participants have completed 2 weeks of dosing with 80 mg of CRN04894 QD in Cohort 1, an interim analysis evaluating PD, PK, efficacy, and safety will be reviewed by the Safety Review Committee (SRC). If it is safe to continue, the SRC will recommend dosing of 120 mg of CRN04894 in Cohort 2. However, the SRC can recommend a lower dose (i.e., 40 mg of CRN04894 QD) in Cohort 2 based on review of safety data. The SRC also has the option to recommend increasing enrollment up to a total of 12 participants each in Cohorts 1 and/or 2. In this situation, expanded enrollment in the cohort will be completed, and data from the expanded cohort will be reviewed by the SRC prior to enrollment in the subsequent cohort.\n(§4) A pharmacodynamic biomarker panel will be drawn. The biomarker panel will include the following: • 17-hydroxyprogesterone (17-OHP); • Adrenocorticotropic hormone (ACTH) (plasma); • Testosterone; • Androstenedione (A4); • Dehydroepiandrosterone (DHEA); • Dehydroepiandrosterone sulfate (DHEA-S); • 11-deoxycorticosterone (11-DOC); • 21-deoxycortisol; • 11β-hydroxyandrostenedione (11-OHA4); • 11-ketoandrostenedione (11-ketoA4); • 11β-hydroxytestosterone (11-OHT); • 11-ketotestosterone (11-ketoT); • Aldosterone; and • Renin.\n(§5) Visits 2-7: Prior to receiving the morning GC replacement dose, a total of 2 blood draws (approximately 1 hour apart) for PD biomarkers will be drawn. The drawing of the PD biomarkers should be one of the first visit activities performed at the start of the visit. Visits should start as early in the morning as possible (preferably 07:00-08:00), so as to minimize any delay in administration of the morning GC dose and the timing of each study visit should be as consistent as possible. The second set of PD biomarkers should be drawn no later than 11:00 am.\n(§6) The initial analysis summarizes the data of four participates (n=4) of Cohort 1 who received 80 mg of CRN04894 QD. There were three female/women participants (n=3) and one male/men participant (n=1).\n(§7) Cohort 1 initial analysis of % changes in values from baseline of morning serum A4, morning serum 17-OHP, morning serum testosterone in females, morning serum testosterone in males, and morning serum A4/testosterone in males are presented in Table 4 below. These changes from baseline are also depicted in FIG. 1, FIG. 2, FIG. 4, FIG. 5, and FIG. 10, respectively.\n(§8) Patients (aged ≥18 to 75, ≥16 years in USA) with classical CAH on a stable dose of glucocorticoid replacement for at least six months were enrolled and received 80 mg once daily, oral CRN04894 for 12 weeks followed by a four-week washout. […]"}, "[2]": {"system": "plasma adrenocorticotropic hormone (ACTH)", "assay": "Phase 2 CAH study, Cohort 1 initial analysis: morning plasma ACTH", "details": "80 mg QD oral; for variation in ACTH levels during treatment: morning, baseline 155 to 1009 pg/mL", "source_text": "as §1, §2, §3, §4\n(§9) Visits 2-7: Prior to receiving the morning GC replacement dose, a total of 2 blood draws (approximately 1 hour apart) for PD biomarkers will be drawn. […]"}, "[3]": {"system": "serum A4/testosterone (male/men)", "assay": "Phase 2 CAH study, Cohort 1 initial analysis: morning serum A4/testosterone, male participants", "details": "80 mg QD oral, n=1; for A4/T ratio in the patient: baseline 0.3, normal <0.2", "source_text": "as §1, §2, §3, §4, §5, §6, §7, §8"}, "[4]": {"system": "serum androstenedione (A4)", "assay": "Phase 2 CAH study, Cohort 1 initial analysis: morning serum androstenedione (A4)", "details": "80 mg QD oral; for A4 reduction (mean±SD): morning, baseline 116 to 604 ng/dL", "source_text": "The primary efficacy objective is to evaluate the efficacy of CRN04894, measured by the change from baseline in serum androstenedione (A4), with the primary efficacy endpoint being the change from baseline in the morning (before 11:00 AM) serum A4 at week 12.\nas §1, §2, §3, §4, §5, §6\nas §7, with “respectively. […]” for “respectively.”"}, "[5]": {"system": "serum testosterone (male/men)", "assay": "Phase 2 CAH study, Cohort 1 initial analysis: morning serum testosterone, male participants", "details": "80 mg QD oral, n=1", "source_text": "as §1, §2, §3, §4, §9"}, "[6]": {"system": "serum 17-hydroxyprogesterone (17-OHP)", "assay": "Phase 2 CAH study, Cohort 1 initial analysis: morning serum 17-hydroxyprogesterone (17-OHP)", "details": "80 mg QD oral; for 17-OHP reduction (mean±SD): baseline 4740 to 6905 ng/dL", "source_text": "The secondary efficacy objective is to evaluate the efficacy of CRN04894, measured by the change from baseline in serum 17-hydroxyprogesterone (17-OHP), with the secondary efficacy endpoint being the change from baseline in the morning (before 11:00 AM) serum 17-OHP at week 12.\nas §1, §2, §3, §4, §5, §6\nas §7, with “respectively. […]” for “respectively.”"}, "[7]": {"assay": "Phase 2 CAH study, Cohort 1 initial analysis: menstruation", "details": "80 mg QD oral; three female participants in cohort", "source_text": "as §1, §2\nParticipants in Cohort 1 will receive 80 mg of CRN04894 QD. […]"}},
  "data": [
    {"smiles": "CCOc1ccccc1-c1ccc(N2CCN(C(=O)C3(C(F)(F)F)CCC3)C[C@H]2CC)c(C(=O)N[C@@H]2CN3CCC2CC3)n1", "note": "[CRN04894, N-[(3S)-1-Azabicyclo[2.2.2]octan-3-yl]-6-(2-ethoxyphenyl)-3-[(2R)-2-ethyl-4-[1-(trifluoromethyl)cyclobutanecarbonyl]-piperazin-1-yl]pyridine-2-carboxamide]", "values": [
      {"measurement": "% Change in morning testosterone (female/women)", "setting": "[1]; Mean, Week 2, n=3", "result": "−61", "unit": "%"},
      {"measurement": "% Change in morning testosterone (female/women)", "setting": "[1]; Mean, Week 6, n=3", "result": "−65", "unit": "%"},
      {"measurement": "% Change in morning testosterone (female/women)", "setting": "[1]; Mean, Week 12, n=2", "result": "−97", "unit": "%"},
      {"measurement": "% Change in morning testosterone (female/women)", "setting": "[1]; Median, Week 2, n=3", "result": "−86", "unit": "%"},
      {"measurement": "% Change in morning testosterone (female/women)", "setting": "[1]; Median, Week 6, n=3", "result": "−96", "unit": "%"},
      {"measurement": "% Change in morning testosterone (female/women)", "setting": "[1]; Median, Week 12, n=2", "result": "−97", "unit": "%"},
      {"measurement": "testosterone reduction (mean±SD), female participants", "setting": "[1]; Week 2, n=3", "result": "61%±53%"},
      {"measurement": "testosterone reduction (mean±SD), female participants", "setting": "[1]; Week 6, n=3", "result": "65%±56%"},
      {"measurement": "testosterone reduction (mean±SD), female participants", "setting": "[1]; Week 12, n=2", "result": "97%±1%"},
      {"measurement": "ACTH levels, trend during treatment", "setting": "[2]; in words", "result": "Modest variations in ACTH levels without a consistent directional trend"},
      {"measurement": "variation in ACTH levels during treatment", "setting": "[2]; Week 2, n=4", "result": "−25%±57%"},
      {"measurement": "variation in ACTH levels during treatment", "setting": "[2]; Week 6, n=4", "result": "51%±87%"},
      {"measurement": "variation in ACTH levels during treatment", "setting": "[2]; Week 12, n=2", "result": "−13%±67%"},
      {"measurement": "% Change in morning A4/testosterone (male/men)", "setting": "[3]; Mean, Week 2", "result": "−73", "unit": "%"},
      {"measurement": "% Change in morning A4/testosterone (male/men)", "setting": "[3]; Mean, Week 6", "result": "−79", "unit": "%"},
      {"measurement": "% Change in morning A4/testosterone (male/men)", "setting": "[3]; Median, Week 2", "result": "−73", "unit": "%"},
      {"measurement": "% Change in morning A4/testosterone (male/men)", "setting": "[3]; Median, Week 6", "result": "−79", "unit": "%"},
      {"measurement": "A4/T ratio in the patient", "setting": "[3]; week 2", "result": 0.08},
      {"measurement": "A4/T ratio in the patient", "setting": "[3]; week 6", "result": 0.06},
      {"measurement": "% Change in morning serum A4", "setting": "[4]; Mean, Week 2, n=4", "result": "−86", "unit": "%"},
      {"measurement": "% Change in morning serum A4", "setting": "[4]; Mean, Week 6, n=4", "result": "−90", "unit": "%"},
      {"measurement": "% Change in morning serum A4", "setting": "[4]; Mean, Week 12, n=2", "result": "−88", "unit": "%"},
      {"measurement": "% Change in morning serum A4", "setting": "[4]; Median, Week 2, n=4", "result": "−88", "unit": "%"},
      {"measurement": "% Change in morning serum A4", "setting": "[4]; Median, Week 6, n=4", "result": "−94", "unit": "%"},
      {"measurement": "% Change in morning serum A4", "setting": "[4]; Median, Week 12, n=2", "result": "−88", "unit": "%"},
      {"measurement": "A4 reduction (mean±SD)", "setting": "[4]; Week 2, n=4", "result": "86%±10%"},
      {"measurement": "A4 reduction (mean±SD)", "setting": "[4]; Week 6, n=4", "result": "90%±9%"},
      {"measurement": "A4 reduction (mean±SD)", "setting": "[4]; Week 12, n=2", "result": "88%±15%"},
      {"measurement": "A4 reduction, onset and maintenance", "setting": "[4]; all participants", "result": "rapid and profound A4 reduction within two weeks, which were maintained for the duration of therapy"},
      {"measurement": "A4 levels relative to upper limit of normal", "setting": "[4]; all visits following treatment, normal 30-200 ng/dL females, 40-150 ng/dL males", "result": "all A4 levels ending below the upper limit of normal (<ULN) at all visits following treatment"},
      {"measurement": "% Change in morning testosterone (male/men)", "setting": "[5]; Mean, Week 2", "result": 9, "unit": "%"},
      {"measurement": "% Change in morning testosterone (male/men)", "setting": "[5]; Mean, Week 6", "result": 11, "unit": "%"},
      {"measurement": "% Change in morning testosterone (male/men)", "setting": "[5]; Median, Week 2", "result": 9, "unit": "%"},
      {"measurement": "% Change in morning testosterone (male/men)", "setting": "[5]; Median, Week 6", "result": 11, "unit": "%"},
      {"measurement": "% Change in morning 17-OHP", "setting": "[6]; Mean, Week 2, n=4", "result": "−96", "unit": "%"},
      {"measurement": "% Change in morning 17-OHP", "setting": "[6]; Mean, Week 6, n=4", "result": "−97", "unit": "%"},
      {"measurement": "% Change in morning 17-OHP", "setting": "[6]; Mean, Week 12, n=2", "result": "−83", "unit": "%"},
      {"measurement": "% Change in morning 17-OHP", "setting": "[6]; Median, Week 2, n=4", "result": "−96", "unit": "%"},
      {"measurement": "% Change in morning 17-OHP", "setting": "[6]; Median, Week 6, n=4", "result": "−97", "unit": "%"},
      {"measurement": "% Change in morning 17-OHP", "setting": "[6]; Median, Week 12, n=2", "result": "−83", "unit": "%"},
      {"measurement": "17-OHP reduction (mean±SD)", "setting": "[6]; Week 2, n=4", "result": "96%±2%"},
      {"measurement": "17-OHP reduction (mean±SD)", "setting": "[6]; Week 6, n=4", "result": "97%±0.3%"},
      {"measurement": "17-OHP reduction (mean±SD)", "setting": "[6]; Week 12, n=2", "result": "83%±22%"},
      {"measurement": "17-OHP reduction, onset and maintenance", "setting": "[6]; all participants", "result": "rapid and profound 17-OHP reduction within two weeks, which were maintained for the duration of therapy"},
      {"measurement": "menstruation in female participants", "setting": "[7]", "result": "Two female participants in this cohort menstruated for the first time in over 2 years"}
    ]}
  ]
}
